Patent publication US20100120858A1, “Piperidine Derivatives” (Pfizer Inc., priority 2006, published 2010)

Tests used:
[1] = system: capsaicin-induced mechanical allodynia; assay: Capsaicin-induced mechanical allodynia rat model; type: in vivo; conditions: sc, male Sprague-Dawley rats, single subcutaneous 10 mg/kg dose on Day 7, measurement 1 hour post dose, mean of eight animals
Method: On Day 0, male Sprague-Dawley rats (about 150 g each) in the dark cycle were placed in suspended wire-bottom cages and allowed to acclimate for 0.5 hour in a darkened, quiet room. The Day 0 paw withdrawal threshold (PWT) was determined on the left hind paw by Von Frey hair assessment using the Dixon up and down method. After assessment, the plantar muscle of the right hind paw was injected with 100 μL of capsaicin (0.25% weight/volume (w/v) in 10% ethanol, 10% Tween 80, in sterile saline).
On Day 6, the PWT of the left hind paw (contralateral from the injected paw) was determined for each animal. Animals on Day 6 with PWT≦11.7 g were considered allodynic responders and were regrouped so that the animals in each cage had similar mean PWT values.
On Day 7, the responders were dosed subcutaneously with 10 mg of the test compound per kg of rat body weight in vehicle, or were administered vehicle (10 mL/kg) alone. The vehicle was phosphate buffered saline containing 2% CREMOPHOR® EL (BASF). The contralateral (i.e., left hind paw) PWT values were determined at 1 hour after the single dose, with the investigator blinded to the dosing scheme. For each animal, the Day 6 PWT value was subtracted from the Day 7, 1 hour PWT value for the 10 mg/kg doses of test compound to give a delta PWT value (Delta PWT (drug)), which represents the change in PWT due to the 1 hour drug treatment. In the case of vehicle-alone treated animals, the Day 6 PWT value was subtracted from the Day 7, 1 hour PWT for the 10 mL/kg doses of vehicle and the values averaged (mean Delta PWT (vehicle)). In addition, the Day 6 PWT was subtracted from the Day 0 PWT to give the baseline level (Baseline) of allodynia present in each animal. Percent inhibition of allodynia of each animal, normalized for vehicle controls, was determined using the following formula: […]

[2] = target: human serotonin transporter (Homo sapiens, UniProt P31645); assay: Human serotonin (hSERT) receptor binding, [125I]-RTI-55; conditions: membranes of HEK-293 cells transfected with human serotonin transporter cDNA, IC50 converted by Cheng-Prusoff
Chain of human serotonin transporter (P31645 whole entry): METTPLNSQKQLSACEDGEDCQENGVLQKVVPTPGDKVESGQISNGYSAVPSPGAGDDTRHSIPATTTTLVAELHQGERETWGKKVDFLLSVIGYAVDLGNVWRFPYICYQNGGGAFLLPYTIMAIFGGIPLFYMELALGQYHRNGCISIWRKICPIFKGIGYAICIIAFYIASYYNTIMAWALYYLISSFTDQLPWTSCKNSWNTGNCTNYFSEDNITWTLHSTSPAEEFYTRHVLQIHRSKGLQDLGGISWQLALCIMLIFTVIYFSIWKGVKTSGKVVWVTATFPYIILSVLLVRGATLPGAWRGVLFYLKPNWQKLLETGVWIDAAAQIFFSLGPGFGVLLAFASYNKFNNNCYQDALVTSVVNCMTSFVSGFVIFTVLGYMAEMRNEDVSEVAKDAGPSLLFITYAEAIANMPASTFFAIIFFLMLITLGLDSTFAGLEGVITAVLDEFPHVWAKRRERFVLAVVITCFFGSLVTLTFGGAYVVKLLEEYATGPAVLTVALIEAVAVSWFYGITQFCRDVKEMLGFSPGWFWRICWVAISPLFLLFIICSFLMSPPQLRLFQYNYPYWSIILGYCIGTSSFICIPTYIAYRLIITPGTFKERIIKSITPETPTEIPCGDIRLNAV
Summary of the method: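 Membranes from HEK-293 cells expressing human SERT were incubated 90 min at room temperature in Krebs-HEPES buffer pH 7.4 with […] [125I]-RTI-55 and compound (10^−5 to 10^−12 M), in duplicate. Nonspecific binding defined with 10 μM citalopram; IC50 converted to Ki by Cheng-Prusoff.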

[3] = target: human norepinephrine transporter (Homo sapiens, UniProt P23975); assay: Human norepinephrine (hNET) receptor binding, [125I]-RTI-55; conditions: membranes of HEK-293 cells transfected with human norepinephrine transporter cDNA; 50 pM [125I]-RTI-55; IC50 converted by Cheng-Prusoff
Chain of human norepinephrine transporter (P23975 whole entry): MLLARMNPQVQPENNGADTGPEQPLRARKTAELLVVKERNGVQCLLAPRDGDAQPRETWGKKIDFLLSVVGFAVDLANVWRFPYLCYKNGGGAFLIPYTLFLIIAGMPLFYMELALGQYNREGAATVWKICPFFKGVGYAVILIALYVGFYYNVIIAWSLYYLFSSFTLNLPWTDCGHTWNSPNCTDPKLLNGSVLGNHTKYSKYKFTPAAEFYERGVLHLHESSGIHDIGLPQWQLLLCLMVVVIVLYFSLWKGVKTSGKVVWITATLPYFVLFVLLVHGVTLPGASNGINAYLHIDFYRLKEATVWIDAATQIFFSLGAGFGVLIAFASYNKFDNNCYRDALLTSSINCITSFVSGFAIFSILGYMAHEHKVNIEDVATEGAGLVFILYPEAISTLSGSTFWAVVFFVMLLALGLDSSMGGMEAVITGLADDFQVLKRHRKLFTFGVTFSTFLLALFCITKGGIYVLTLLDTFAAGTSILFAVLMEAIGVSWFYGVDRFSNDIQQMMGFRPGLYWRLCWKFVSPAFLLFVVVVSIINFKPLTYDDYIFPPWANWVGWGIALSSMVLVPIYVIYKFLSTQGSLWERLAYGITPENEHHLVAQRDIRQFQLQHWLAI
Summary of the method: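 Membranes from HEK-293 cells expressing human NET, incubated 90 min at room temperature with 50 pM [125I]-RTI-55 and compound (10^−5 to 10^−12 M) in Krebs-HEPES pH 7.4. Nonspecific binding defined with 10 μM desipramine; filter-bound counts gave IC50, converted to Ki by Cheng-Prusoff.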

## COc1cc(C)ccc1Oc1nc(C)ccc1OC[C@H]1CCCNC1 [Example 4, (S)-2-(2-methoxy-4-methyl-phenoxy)-6-methyl-3-(piperidin-3-ylmethoxy)-pyridine fumaric acid]
[1]
  inhibition in vivo at 10 mg/kg: 43%
[2]
  Ki: 170 nM
[3]
  Ki: 7.4 nM

## COc1ccc(Oc2nc(C)ccc2OC[C@H]2CCCNC2)cc1 [Example 6, (S)-2-(4-methoxy-phenoxy)-6-methyl-3-(piperidin-3-ylmethoxy)-pyridine fumaric acid]
[1]
  inhibition in vivo at 10 mg/kg: 16%
[2]
  Ki: 360 nM
[3]
  Ki: 16 nM

## Cc1ccc(Oc2nc(C)ccc2OC[C@H]2CCCNC2)cc1 [Example 8, (S)-2-(4-methyl-phenoxy)-6-methyl-3-(piperidin-3-ylmethoxy)-pyridine fumaric acid]
[1]
  inhibition in vivo at 10 mg/kg: 22%
[2]
  Ki: 159 nM
[3]
  Ki: 10.3 nM

## CCc1ccc(Oc2nc(C)ccc2OC[C@H]2CCCNC2)c(OC)c1 [Example 11, (S)-2-(4-ethyl-2-methoxy-phenoxy)-6-methyl-3-(piperidin-3-ylmethoxy)-pyridine fumaric acid]
[1]
  inhibition in vivo at 10 mg/kg: 9%
[2]
  Ki: 180 nM
[3]
  Ki: 18 nM

## COc1cc(Cl)ccc1Oc1nc(C)ccc1OC[C@H]1CCCNC1 [Example 12, (S)-2-(4-chloro-2-methoxy-phenoxy)-6-methyl-3-(piperidin-3-ylmethoxy)-pyridine fumaric acid]
[1]
  inhibition in vivo at 10 mg/kg: 88%
[2]
  Ki: 120 nM
[3]
  Ki: 8.7 nM

## Cc1ccc(Oc2nc(C)ccc2OC[C@H]2CCCNC2)c(Cl)c1 [Example 14, (S)-2-(2-chloro-4-methyl-phenoxy)-6-methyl-3-(piperidin-3-ylmethoxy)-pyridine fumaric acid]
[1]
  inhibition in vivo at 10 mg/kg: 48%
[2]
  Ki: 40 nM
[3]
  Ki: 2.8 nM

## Cc1ccc(OC[C@H]2CCCNC2)c(Oc2ccc(Cl)cc2F)n1 [Example 23, (S)-2-(4-chloro-2-fluoro-phenoxy)-6-methyl-3-(piperidin-3-ylmethoxy)-pyridine fumaric acid]
[1]
  inhibition in vivo at 10 mg/kg: 65%
[2]
  Ki: 28 nM
[3]
  Ki: 5.3 nM

## Fc1ccc(Oc2ncccc2OC[C@@H]2CCCNC2)cc1F.O=C(O)/C=C/C(=O)O [Example 63, (R)-2-(3,4-difluoro-phenoxy)-3-(piperidin-3-ylmethoxy)-pyridine fumaric acid]
[2]
  Ki: 803 nM
[3]
  Ki: 140 nM
other
  melting point: 130 to 131 °C

## Cc1ccc(Oc2ncccc2OC[C@H]2CCCNC2)cc1C.O=C(O)/C=C/C(=O)O [Example 65, (S)-2-(3,4-dimethyl-phenoxy)-3-(piperidin-3-ylmethoxy)-pyridine fumaric acid]
[2]
  Ki: 2200 nM
[3]
  Ki: 7 nM
other
  melting point: 169 to 170 °C

## Fc1ccc(Oc2ncccc2OC[C@H]2CCCNC2)cc1Cl.O=C(O)/C=C/C(=O)O [Example 66, (S)-2-(3-chloro-4-fluoro-phenoxy)-3-(piperidin-3-ylmethoxy)-pyridine fumaric acid]
[2]
  Ki: 2900 nM
[3]
  Ki: 20 nM
other
  melting point: 143 to 144 °C (dec.)

## Cc1cc(Oc2ncccc2OC[C@H]2CCCNC2)ccc1F.O=C(O)/C=C/C(=O)O [Example 67, (S)-2-(4-fluoro-3-methyl-phenoxy)-3-(piperidin-3-ylmethoxy)-pyridine fumaric acid]
[2]
  Ki: 3300 nM
[3]
  Ki: 6 nM
other
  melting point: 136 to 138 °C

## Cc1cccc(Oc2ncccc2OC[C@H]2CCCNC2)c1.O=C(O)/C=C/C(=O)O [Example 68, (S)-2-(3-methyl-phenoxy)-3-(piperidin-3-ylmethoxy)-pyridine fumaric acid]
[2]
  Ki: 5800 nM
[3]
  Ki: 6 nM
other
  melting point: 130 to 132 °C

## Fc1cc(Oc2ncccc2OC[C@H]2CCCNC2)ccc1Cl.O=C(O)/C=C/C(=O)O [Example 69, (S)-2-(4-chloro-3-fluoro-phenoxy)-3-(piperidin-3-ylmethoxy)-pyridine fumaric acid]
[2]
  Ki: 5500 nM
[3]
  Ki: 4 nM
other
  melting point: 150 to 151 °C

## FC(F)(F)Oc1cccc(Oc2ncccc2OC[C@H]2CCCNC2)c1.O=C(O)/C=C/C(=O)O [Example 70, (S)-3-(piperidin-3-ylmethoxy)-2-(3-trifluoromethoxy-phenoxy)-pyridine fumaric acid]
[2]
  Ki: 9700 nM
[3]
  Ki: 102 nM
other
  melting point: 144 to 146 °C

## Fc1ccc(Oc2ncccc2OC[C@H]2CCCNC2)c(Cl)c1.O=C(O)/C=C/C(=O)O [Example 71, (S)-2-(2-chloro-4-fluoro-phenoxy)-3-(piperidin-3-ylmethoxy)-pyridine fumaric acid]
[2]
  Ki: 6600 nM
[3]
  Ki: 2 nM
other
  melting point: 189 to 190 °C (dec.)

## Fc1cccc(F)c1Oc1ncccc1OC[C@H]1CCCNC1.O=C(O)/C=C/C(=O)O [Example 72, (S)-2-(2,6-difluoro-phenoxy)-3-(piperidin-3-ylmethoxy)-pyridine fumaric acid]
[2]
  Ki: 3300 nM
[3]
  Ki: 2 nM
other
  melting point: 182 to 183 °C (dec.)

## Cc1ccccc1Oc1ncccc1OC[C@H]1CCCNC1.O=C(O)/C=C/C(=O)O [Example 73, (S)-2-(2-methyl-phenoxy)-3-(piperidin-3-ylmethoxy)-pyridine fumaric acid]
[2]
  Ki: > 10000 nM
[3]
  Ki: 4 nM
other
  melting point: 165 to 167 °C (dec.)

## CC(C)Oc1ccccc1Oc1ncccc1OC[C@H]1CCCNC1.O=C(O)/C=C/C(=O)O [Example 74, (S)-2-(2-isopropoxy-phenoxy)-3-(piperidin-3-ylmethoxy)-pyridine fumaric acid]
[2]
  Ki: > 10000 nM
[3]
  Ki: 11 nM
other
  melting point: 129 to 134 °C (dec.)

## CC(C)c1ccccc1Oc1ncccc1OC[C@H]1CCCNC1.O=C(O)/C=C/C(=O)O [Example 75, (S)-2-(2-isopropyl-phenoxy)-3-(piperidin-3-ylmethoxy)-pyridine fumaric acid]
[2]
  Ki: > 10000 nM
[3]
  Ki: 760 nM
other
  melting point: 112 to 114 °C (dec.)

## Cc1ccc(Cl)c(Oc2ncccc2OC[C@H]2CCCNC2)c1.O=C(O)/C=C/C(=O)O [Example 76, (S)-2-(2-chloro-5-methyl-phenoxy)-3-(piperidin-3-ylmethoxy)-pyridine fumaric acid]
[2]
  Ki: 4800 nM
[3]
  Ki: 4 nM
other
  melting point: 183 to 184 °C (dec.)

## O=C(O)/C=C/C(=O)O.c1ccc(COc2ncccc2OC[C@H]2CCCNC2)cc1 [Example 77, (S)-2-benzyloxy-3-(piperidin-3-ylmethoxy)-pyridine fumaric acid]
[2]
  Ki: 7200 nM
[3]
  Ki: 6100 nM
other
  melting point: 165 to 167 °C (dec.)

## O=C(O)/C=C/C(=O)O.c1ccc(CCOc2ncccc2OC[C@H]2CCCNC2)cc1 [Example 82, (S)-2-phenethyloxy-3-(piperidin-3-ylmethoxy)-pyridine fumaric acid]
[2]
  Ki: 3700 nM
[3]
  Ki: 210 nM
other
  melting point: 146 to 148 °C (dec.)

## O=C(O)/C=C/C(=O)O.c1ccc(CCCOc2ncccc2OC[C@H]2CCCNC2)cc1 [Example 83, (S)-2-(3-phenyl-propoxy)-3-(piperidin-3-ylmethoxy)-pyridine fumaric acid]
[2]
  Ki: 10 nM
[3]
  Ki: 210 nM
other
  melting point: 141 to 142 °C (dec.)

## O=C(O)/C=C/C(=O)O.c1ccc(Oc2ncccc2OC[C@@H]2CCCNC2)cc1 [Example 94, (R)-2-phenoxy-3-(piperidin-3-ylmethoxy)-pyridine fumaric acid]
[2]
  Ki: 4700 nM
[3]
  Ki: 410 nM
other
  melting point: 141 to 143 °C (dec.)

## Cl.c1ccc(COc2ccccc2OC[C@H]2CCCNC2)cc1 [Example 99, (S)-3-(2-benzyloxy-phenoxymethyl)-piperidine hydrochloride]
[2]
  Ki: 4800 nM
[3]
  Ki: 11 nM
other
  melting point: 137 to 140 °C (dec.)

## Cl.c1ccc(OC2CCCCC2)c(OC[C@H]2CCCNC2)c1 [Example 101, (S)-3-(2-cyclohexyloxy-phenoxymethyl)-piperidine hydrochloride]
[2]
  Ki: > 9700 nM
[3]
  Ki: 20 nM
other
  melting point: 149 to 150 °C

## CC(C)COc1ccccc1OCC1CCCNC1.Cl (stereo not drawn) [Example 102, 3-(2-isobutoxy-phenoxymethyl)-piperidine hydrochloride]
[2]
  Ki: 3960 nM
[3]
  Ki: 32 nM
other
  melting point: 162 °C
